For one test, the system named is IDO and TSG6. Put plainly: qRT-PCR of IDO and TSG6 expression in primed mesenchymal stem cells (joint statements). It is filed as cell-based. The note with it: 24 hours, Table 1 groups, FIG. 4. The procedure: In a 37° C. and 5% CO2 incubator, mesenchymal stem cells in a storage state (LN2 tank storage) were thawed and cultured, and at this time, the cells were cultured in a medium (DMEM, alpha-MEM) containing 10% FBS or 4% hPL until proliferated to a cell confluence of about 80%. The cultured mesenchymal stem cells were seeded in a 100 mm dish, and treated with candidate substances for reinforcing the functions of the mesenchymal stem cells for 24 hours, and then the concentrations of primary candidate substances for reinforcing the functions were set.
TNF-α and IFN-γIFN-α were selected as the primary candidate substances, and in order to confirm the lowest effective concentration capable of increasing the expression of TNFα-stimulated gene-6 (TSG6) and indoleamine 2,3-dioxygenase (IDO) to confirm the reinforced functions, the stem cells were treated with 5, 10, and 20 ng/ml of TNF-α, 5, 10, and 20 ng/ml of IFN-γ, and 10, 20, and 40 ng/ml of IFN-α, respectively, and changes in expression of TSG6 and IDO were confirmed.
The IDO was known as an immunomodulatory factor that inhibited the proliferation of immune cells such as T cells by converting tryptophan, which was essential for T cell proliferation, into kynurenine, and the TSG6 was known as an anti-inflammatory regulator secreted by mesenchymal stem cells. After culturing the stem cells, total RNA was isolated using TRIzol (Invitrogen), and then cDNA was synthesized from total RNA using PrimeScriptTMRT reagent Kit with gDNA Eraser (TaKaRa), and qRT-PCR was performed. The results of TSG6 and IDO according to the concentration of each candidate substance were illustrated in FIGS. 1, 2 and 3.
Through Example 1, candidate substances and concentration combinations thereof selected to search for more functionally reinforced compositions based on the candidate substances and the lowest effective concentrations confirmed to induce the reinforced functions of stem cells were set as shown in Table 1. Mesenchymal stem cells were treated with the candidate combinations described in Table 1 below for 24 hours, and the stem cells were cultured as in Example 1, and then total RNA was isolated using TRIzol (Invitrogen). Then, qRT-PCR was performed by synthesizing cDNA from total RNA using the PrimeScript™ RT reagent Kit with gDNA Eraser (TaKaRa).
Vitamins were known to improve the proliferative ability of stem cells and maintain the stemness of stem cells when added during a stem cell culture process. Accordingly, various vitamins were treated in the stem cell culture process, and experiments were performed to confirm whether or not vitamins could achieve anti-inflammatory and immune function reinforcing effects of stem cells. Specifically, the stem cells were treated with various types of vitamins shown in Table 2 according to the method described in Example 1, and the results of confirming changes in expression of IDO and TSG6 according to treatment with each candidate substance were illustrated in FIG. 5.
In the case of IFN-α, the “expression of IDO and TSG6 compared to untreated control group 0” value was “increased expression of IDO and TSG6”.

Turning to “IFN-γ: cytokine, primary candidate substance for priming stem cells, 10 ng/ml”, the “expression of IDO and TSG6 compared to untreated control group 0” value is “increased expression of IDO and TSG6”.

Turning to TNF-α, the “expression of IDO and TSG6 compared to untreated control group 0” value is “increased expression of IDO and TSG6”.

Staying with this test, now noted: 24 hours, tested 5, 10, 20 ng/ml (TNF-α, IFN-γ) and 10, 20, 40 ng/ml (IFN-α), FIGS. 1-3.
IFN-α: the “lowest effective concentration capable of inducing significantly increased expression of both TSG6 and IDO” value stood at 20 ng/mL.

In the case of “IFN-γ: cytokine, primary candidate substance for priming stem cells, 10 ng/ml”, the “lowest effective concentration capable of inducing significantly increased expression of both TSG6 and IDO” value is 10 ng/mL.

With TNF-α, the “lowest effective concentration capable of inducing significantly increased expression of both TSG6 and IDO” value was 10 ng/mL.
